These results are taken from US20130178488A1, “TRICYCLIC COMPOUNDS, PREPARATION METHODS, AND THEIR USES” (priority 2011, published 2013).

This assay concerns the target T1, recombinant human Lp-PLA2 (Homo sapiens, UniProt Q13093).
T1 sequence (Q13093 22-441): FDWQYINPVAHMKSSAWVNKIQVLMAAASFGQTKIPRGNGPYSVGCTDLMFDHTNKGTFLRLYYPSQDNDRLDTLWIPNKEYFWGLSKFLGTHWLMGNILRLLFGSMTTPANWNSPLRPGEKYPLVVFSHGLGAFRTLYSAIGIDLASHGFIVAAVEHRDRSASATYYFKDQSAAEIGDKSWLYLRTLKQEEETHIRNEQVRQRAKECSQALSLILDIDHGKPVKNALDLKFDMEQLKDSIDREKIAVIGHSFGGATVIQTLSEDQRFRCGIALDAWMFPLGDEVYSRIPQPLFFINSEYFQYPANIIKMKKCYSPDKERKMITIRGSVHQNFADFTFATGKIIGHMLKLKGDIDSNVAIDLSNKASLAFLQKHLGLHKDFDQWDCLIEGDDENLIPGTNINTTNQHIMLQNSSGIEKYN
Put plainly: Recombinant human Lp-PLA2 assay (rhLp-PLA2, PED6 assay). In kind it is biochemical. The note with it: one experiment or average of multiple experiments; upper limit of the PED6 assay is pIC50 9.3. An excerpt:
(1) Recombinant Human Lp-PLA2 Assay (rhLp-PLA2) (Also Referred to as “PED6” Assay)
N-((6-(2,4-dinitrophenyl)amino)-hexanoyl)-2-(4,4-difluoro-5,7-dimethyl-4-bora-3a,4a-diaza-s-indacene-3-pentanoyl)-1-hexadecanoyl-sn-glycero-3-phosphoethanolamine, triethylammonium salt (PED6) is a commercially available fluorescently-labeled phospholipid, which is commercially available from Molecular Probes. There is a quenching para-nitro phenyl (PNP) group in the sn3 position and a Bodipy fluorescein (FL) group in the sn2 position. Upon cleavage with LpPLA2, the Bodipy Fl group is liberated and then may result in an increase in fluorescence. Inhibitors of LpPLA2 therefore prevent this cleavage and no fluorescent increase is observed.
The PED6 assay is run as an unquenched 10 μL assay. Compounds source plate is prepared by making 1:3 (by volume) serial dilution of the compounds into pure DMSO on 384-well microplate. Then 0.01 μL of compounds on compound source plate are transferred into 384 well Greiner 784076 (black) plates by ECHO liquid dispenser. 5 μL of recombinant human Lp-PLA2 enzyme (2 nM rhLp-PLA2 in assay buffer of 50 mM HEPES, pH7.4, 150 mM NaCl, 1 mM CHAPS) is added to each well of the plate with compounds. Plates are centrifuged for 10 sec at 500 rpm. After 30 minutes preincubation, 5 μL of substrate (4 μM PED6 [from 5 mM DMSO stock] in assay buffer of 50 mM HEPES, pH7.4, 150 mM NaCl, 1 mM CHAPS) is added to 384 well Greiner 784076 (black) plates. Plates are centrifuged for 10 sec at 500 rpm. Plate is covered to protect from light and incubated for 20 min at room temperature. Plates are read for Fluorescence intensity at ex: 480/em: 540 using ViewLux microplate imager. PIC50 data, curve and QC analysis is conducted by using XL fit module in Excel.
What is called IC50 is the concentration at which inhibition is half-maximal. As for `COc1ccc2c(c1)CCn1c-2cc(Oc2ccc(Oc3cccc(C(F)(F)F)c3)c(C#N)c2)nc1=O` [Example E1, 5-((9-Methoxy-4-oxo-6,7-dihydro-4H-pyrimido[6,1-a]isoquinolin-2-yl)oxy)-2-(3-(trifluoromethyl)phenoxy)benzonitrile], the IC50 was no more than 0.501 nM.
Turning to `N#Cc1cc(COc2cc3n(c(=O)n2)CCc2ccccc2-3)ccc1Oc1cccc(C(F)(F)F)n1` [Example 96, 5-(((4-oxo-6,7-dihydro-4H-pyrimido[6,1-a]isoquinolin-2-yl)oxy)methyl)-2-((6-(trifluoro-methyl)pyridin-2-yl)oxy)benzonitrile], the IC50 is 0.794 nM.
In the case of `N#Cc1cc(COc2cc3n(c(=O)n2)CCc2cc(F)ccc2-3)ccc1Oc1cccc(C(F)(F)F)c1` [Example 89, 5-(((9-fluoro-4-oxo-6,7-dihydro-4H-pyrimido[6,1-a]isoquinolin-2-yl)oxy)methyl)-2-(3-(trifluoromethyl)phenoxy)benzonitrile], the IC50 is 3.16 nM.
The figure for `N#Cc1cc(COc2cc3n(c(=O)n2)CCc2ccccc2-3)ccc1Oc1ccc(Cl)c(C(F)(F)F)c1` [Example 88, 2-(4-chloro-3-(trifluoromethyl)phenoxy)-5-(((4-oxo-6,7-dihydro-4H-pyrimido[6,1-a]isoquinolin-2-yl)oxy)methyl)benzonitrile] is 0.794 nM.
For the molecule `N#Cc1cc(COc2cc3n(c(=O)n2)CCc2cc(F)ccc2-3)ccc1Oc1ccc(C(F)(F)F)cn1` [Example 93, 5-(((9-fluoro-4-oxo-6,7-dihydro-4H-pyrimido[6,1-a]isoquinolin-2-yl)oxy)methyl)-2-((5-(trifluoromethyl)pyridin-2-yl)oxy)benzonitrile], the IC50 is 1 nM.
For the molecule `COc1ccc2c(c1)CCn1c-2cc(OCc2ccc(Oc3ccc(C(F)(F)F)nc3)c(F)c2)nc1=O` [Example E58, 2-((3-fluoro-4-((6-(trifluoromethyl)pyridin-3-yl)oxy)benzyl)oxy)-9-methoxy-6,7-dihydro-4H-pyrimido[6,1-a]isoquinolin-4-one], the IC50 was 1 nM.
With `N#Cc1cc(COc2cc3n(c(=O)n2)CCc2cc(F)ccc2-3)ccc1Oc1ccc(Cl)c(C(F)(F)F)c1` [Example 92, 2-(4-chloro-3-(trifluoromethyl)phenoxy)-5-(((9-fluoro-4-oxo-6,7-dihydro-4H-pyrimido[6,1-a]isoquinolin-2-yl)oxy)methyl)benzonitrile], the IC50 was 0.794 nM.
`COc1ccc2c(c1)CCn1c-2cc(OCc2ccc(Oc3ccc(C(F)(F)F)nc3)c(C#N)c2)nc1=O` [Example E36, 5-({[9-(Methyloxy)-4-oxo-6,7-dihydro-4H-pyrimido[6,1-a]isoquinolin-2-yl]oxy}methyl)-2-{[6-(trifluoromethyl)-3-pyridinyl]oxy}benzonitrile]: the IC50 is 1 nM.
Take `O=c1nc(OCc2ccc(Oc3cnc(C(F)(F)F)nc3)c(F)c2)cc2n1CCc1cc(F)ccc1-2` [Example 98, 9-fluoro-2-((3-fluoro-4-((2-(trifluoromethyl)pyrimidin-5-yl)oxy)benzyl)oxy)-6,7-dihydro-4H-pyrimido[6,1-a]isoquinolin-4-one]: the IC50 was no more than 0.501 nM.
As to `O=c1nc(OCc2cc(F)c(Oc3ccc(C(F)(F)F)nc3)c(F)c2)cc2n1CCc1ccccc1-2` [Example 94, 2-((3,5-difluoro-4-((6-(trifluoromethyl)pyridin-3-yl)oxy)benzyl)oxy)-6,7-dihydro-4H-pyrimido[6,1-a]isoquinolin-4-one], the half-maximal inhibitory concentration (IC50) was 1 nM.
The figure for `N#Cc1cc(COc2cc3n(c(=O)n2)CCc2ccccc2-3)ccc1Oc1ccc(C(F)(F)F)nc1` [Example 91, 5-(((4-oxo-6,7-dihydro-4H-pyrimido[6,1-a]isoquinolin-2-yl)oxy)methyl)-2-((6-(trifluoro-methyl)pyridin-3-yl)oxy)benzonitrile] is 1 nM.
Turning to `COc1ccc2c(c1)CCn1c-2cc(OCc2ccc(Oc3ccc(C(F)(F)F)cn3)c(C#N)c2)nc1=O` [Example E22, 5-(((9-Methoxy-4-oxo-6,7-dihydro-4H-pyrimido[6,1-a]isoquinolin-2-yl)oxy)methyl)-2-((5-(trifluoromethyl)pyridin-2-yl)oxy)benzonitrile], the IC50 was 0.631 nM.
